Test results: ChEMBL document CHEMBL3751832, “Synthesis, in vitro and computational studies of 1,4-disubstituted 1,2,3-triazoles as potential α-glucosidase inhibitors” (Bioorg Med Chem Lett, 2016)
Counter-ions that a name gives are not always drawn.

assay: Inhibition of yeast type-3 alpha-glucosidase using p-nitrophenyl-alpha-D-glucopyranoside as substrate after 30 mins; parameters: species or system Saccharomyces cerevisiae

Compound | IC50
O=[N+]([O-])c1ccc(-n2cc(-c3ccccc3)nn2)cc1 | 235 µM
COC(=O)Cn1cc(-c2ccccc2)nn1 | 255 µM
OC1(c2cn(-c3ccccc3Cl)nn2)CCCCC1 | 370 µM
Clc1ccccc1-n1cc(-c2ccccc2)nn1 | 57.2 µM
N#Cc1cc([N+](=O)[O-])ccc1-n1cc(C2(O)CCCCC2)nn1 | 49.7 µM
O=[N+]([O-])c1ccc(-n2cc(C3(O)CCCCC3)nn2)cc1 | 320 µM
CC(=O)c1cccc(-n2cc(C3(O)CCCCC3)nn2)c1 | 320 µM
COc1cccc(-n2cc(C3(O)CCCCC3)nn2)c1 | 245 µM
CC(=O)c1cccc(-n2cc(-c3ccccc3)nn2)c1 | 265 µM
CC(=O)c1ccccc1-n1cc(-c2ccccc2)nn1 | 313 µM
OC[C@H]1NC[C@H](O)[C@@H](O)[C@@H]1O [DUVOGLUSTAT HYDROCHLORIDE] | 3.49 µM
